In PubChem BioAssay AID1259411 (Chemical Carcinogenesis Research Information System (CCRIS), 2018):
Active and inactive are the calls of the source. The rule behind the calls is not given here.

Test system: rodent carcinogenicity bioassays, tumor incidence
Experiment: CCRIS carcinogenicity studies
Method in brief: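 Archive of carcinogenicity, mutagenicity, tumor promotion and tumor inhibition results drawn from journals, NCI reports and other sources, expert-reviewed; covers 1985-2011 and is no longer updated.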

Compound: O=C[C@H](O)[C@@H](O)[C@H](O[C@@H]1O[C@H](CO)[C@H](O)[C@H](O)[C@H]1O)[C@H](O)CO
- carcinogen call (Species: RAT, Strain/Sex: SPF/FEMALE, Route: ORAL, Dose: 0, 20% IN DIET FOR DURATION OF STUDY ADMINISTERED TO OFFSPRING OF RATS FED THE SAME DIETS (STUDY DURATION: 130 WK)): inactive; negative
- carcinogen call (Species: RAT, Strain/Sex: SPF/MALE, Route: ORAL, Dose: 0, 20% IN DIET FOR DURATION OF STUDY ADMINISTERED TO OFFSPRING OF RATS FED THE SAME DIETS (STUDY DURATION: 130 WK), Tumor Site: Type of Lesion: ADRENAL GLAND: MEDULLARY TUMORS, TESTES: LEYDIG CELL TUMOR): active; positive

Compound: CCN(CC)C(=O)N(CC)N=O
- carcinogen call (Species: HAMSTER, Strain/Sex: SYRIAN/MALE, Route: GAVAGE, Dose: 0, 45 MG/ML (0.2 ML OF A SOLUTION IN 50% ETHANOL) 1/WK FOR 25 WK (STUDY DURATION: LIFE SPAN), Tumor Site: Type of Lesion: SPLEEN: HEMANGIOSARCOMA, FORESTOMACH: SQUAMOUS CELL CARCINOMA OR PAPILLOMA): active; positive

Compound: CC(C)COC(=O)c1ccc(O)cc1
- carcinogen call (Species: MOUSE, Strain/Sex: ICR/FEMALE, Route: ORAL, Dose: 0, 0.15, 0.3, 0.6% IN DIET FOR 102 WK (STUDY DURATION: 106 WK), Dose: 0, 0.15, 0.3, 0.6% IN DIET FOR 102 WK (STUDY DURATION: 106 WK)): inactive; negative
- carcinogen call (Species: MOUSE, Strain/Sex: ICR/MALE, Route: ORAL, Dose: 0, 0.15, 0.3, 0.6% IN DIET FOR 102 WK (STUDY DURATION: 106 WK), Dose: 0, 0.15, 0.3, 0.6% IN DIET FOR 102 WK (STUDY DURATION: 106 WK)): inactive; negative

Compound: OCC(Cl)(Cl)Cl
- carcinogen call (Species: MOUSE, Strain/Sex: B6C3F1/FEMALE, Route: INTRAPERITONEAL, Dose: 0, 1000 NMOL TOTAL DOSE, 1/3 AND 2/3 OF THE TOTAL DOSE ADMINISTERED AT 8 AND 15 DAYS OF AGE RESPECTIVELY, ANIMALS TERMIN): inactive; negative
- carcinogen call (Species: MOUSE, Strain/Sex: B6C3F1/FEMALE, Route: INTRAPERITONEAL, Dose: 0, 2000 NMOL TOTAL DOSE, 3/7 AND 4/7 OF THE TOTAL DOSE ADMINISTERED AT 8 AND 15 DAYS OF AGE RESPECTIVELY, ANIMALS TERMIN): inactive; negative
- carcinogen call (Species: MOUSE, Strain/Sex: B6C3F1/MALE, Route: INTRAPERITONEAL, Dose: 0, 1000 NMOL TOTAL DOSE, 1/3 AND 2/3 OF THE TOTAL DOSE ADMINISTERED AT 8 AND 15 DAYS OF AGE RESPECTIVELY, ANIMALS TERMIN): inactive; negative
- carcinogen call (Species: MOUSE, Strain/Sex: B6C3F1/MALE, Route: INTRAPERITONEAL, Dose: 0, 2000 NMOL TOTAL DOSE, 3/7 AND 4/7 OF THE TOTAL DOSE ADMINISTERED AT 8 AND 15 DAYS OF AGE RESPECTIVELY, ANIMALS TERMIN): inactive; negative

Compound: CN=[N+](C)[O-]
- carcinogen call (Species: MOUSE, Strain/Sex: A/J/MALE,FEMALE, Route: INTRAPERITONEAL INJECTION, Dose: 5, 10 MG/KG BW ONCE A WEEK FOR 4 WKS, Tumor Site: Type of Lesion: COLON: TUMORS (ADENOMA), % OF TUMOR BEARING MICE WAS 10X HIGHER IN 10 MG/KG GROUP): active; positive; all animals given 20 mg/kg died
- carcinogen call (Species: MOUSE, Strain/Sex: A/J/MALE,FEMALE, Route: INTRAPERITONEAL INJECTION, Dose: 10 MG/KG ONCE WEEKLY FOR 2, 4, 8 WKS, Tumor Site: Type of Lesion: COLON: ADENOMA): active; positive; response of approximately 25% with 2 doses to almost 100% at 4 or 8 d
- carcinogen call (Species: MOUSE, Strain/Sex: A/J/MALE,FEMALE, Route: SUBCUTANEOUS INJECTION, Dose: 10 MG/KG BW ONCE A WK FOR 4 WK, Tumor Site: Type of Lesion: COLON: ADENOMA): active; positive; almost 80% incidence
- carcinogen call (Species: MOUSE, Strain/Sex: AKR/J/MALE,FEMALE, Route: INTRAPERITONEAL INJECTION, Dose: 10 MG/KG BW WEEKLY FOR 2, 4, 8 WKS (STUDY DURATION: 6 MO), Tumor Site: Type of Lesion: COLON: ADENOMAS): only 5% of animals at 4 wk treatment developed tumors
- carcinogen call (Species: MOUSE, Strain/Sex: AKR/J/MALE,FEMALE, Route: SUBCUTANEOUS, Dose: 10 MG/KG BW WEEKLY FOR 4 WK (STUDY DURATION: 6 MO), Tumor Site: Type of Lesion: COLON: ADENOMA): only about 5% developed tumors
- carcinogen call (Species: MOUSE, Strain/Sex: ICR/MALE, Route: SUBCUTANEOUS, Dose: 0, 0.3 MG/MOUSE IN SALINE 1/WK FOR 20 WK (STUDY DURATION: 36 WK), Tumor Site: Type of Lesion: COLON: ADENOMA OR ADENOCARCINOMA, ADENOMA OR ADENOCARCINOMA OR CARCINOMA, RECTUM: CARCINOMA, BLOOD VESSELS: ANGIOMA OR A, Tumor Site: Type of Lesion: COLON: ADENOMA OR ADENOCARCINOMA, ADENOMA OR ADENOCARCINOMA OR CARCINOMA, RECTUM: CARCINOMA, BLOOD VESSELS: ANGIOMA OR A): active; positive
- carcinogen call (Species: MOUSE, Strain/Sex: SWR/J/MALE,FEMALE, Route: INTRAPERITONEAL INJECTION, Dose: 10 MG/KG BW FOR 2, 4, OR 8 WKS, ONCE A WK (STUDY DURATION: 6 MO), Tumor Site: Type of Lesion: COLON: ADENOMA): active; positive- tumor incidence 30-100%
- carcinogen call (Species: MOUSE, Strain/Sex: SWR/J/MALE,FEMALE, Route: SUBCUTANEOUS INJECTION, Dose: 10 MG/KG BW ONCE A WK FOR 4 WK, Tumor Site: Type of Lesion: COLON: ADENOMA): active; positive; response about 30%
- carcinogen call (Species: RAT, Strain/Sex: F344/FEMALE, Route: INTRAVESICULAR, Dose: 0, 2 MG IN 0.2 ML ETHANOL: DEIONIZED WATER (1:3) 2/WK FOR 22 WK (TOTAL DOSE 1.2 MMOL) (STUDY DURATION: LIFESPAN), Tumor Site: Type of Lesion: COLON: TUMOR, ZYMBAL GLAND: TUMOR): active; positive
- carcinogen call (Species: RAT, Strain/Sex: F344/FEMALE, Route: SUBCUTANEOUS, Dose: 8 MG/KG 1/WK FOR 10 WK, Tumor Site: Type of Lesion: COLON: ADENOMA, CARCINOMA, ADENOCARCINOMA): active; positive
- carcinogen call (Species: RAT, Strain/Sex: F344/MALE, Route: ORAL, Dose: 0, 1.0, 4.0 MG/WK IN DRINKING WATER FOR 30 WK (STUDY DURATION: LIFETIME), Dose: 0, 1.0, 4.0 MG/WK IN DRINKING WATER FOR 30 WK (STUDY DURATION: LIFETIME), Tumor Site: Type of Lesion: LIVER: CARCINOMA, SARCOMA, KIDNEY: INTERSTITIAL CELL SARCOMA OR NEUROSARCOMA OR RENAL CARCINOMA, COLON: ADENOMA OR CARCI, Tumor Site: Type of Lesion: LIVER: CARCINOMA, SARCOMA, KIDNEY: INTERSTITIAL CELL SARCOMA OR NEUROSARCOMA OR RENAL CARCINOMA, COLON: ADENOMA OR CARCI): active; positive
- carcinogen call (Species: RAT, Strain/Sex: F344/MALE, Route: ORAL, Dose: 0, 10, 40 MG/ML IN A NEUTRAL DEIONIZED DRINKING WATER SOLUTION 5 D/WK FOR 30 WK (TOTAL DOSE 30; 120 MG) (STUDY DURATION:, Dose: 0, 10, 40 MG/ML IN A NEUTRAL DEIONIZED DRINKING WATER SOLUTION 5 D/WK FOR 30 WK (TOTAL DOSE 30; 120 MG) (STUDY DURATION:, Tumor Site: Type of Lesion: LIVER: CARCINOMA, HEMANGIOSARCOMA, KIDNEY: TUMOR, COLON: ADENOCARCINOMA, ADENOMA, Tumor Site: Type of Lesion: LIVER: CARCINOMA, HEMANGIOSARCOMA, KIDNEY: TUMOR, COLON: ADENOCARCINOMA, ADENOMA): active; positive
- carcinogen call (Species: RAT, Strain/Sex: SPRAGUE-DAWLEY/MALE, Route: SUBCUTANEOUS, Dose: 8 MG/KG 1/WK FOR 24 WK, Tumor Site: Type of Lesion: INTESTINES (LARGE AND SMALL): ADENOCARCINOMA): active; positive
- carcinogen call (Species: RAT, Strain/Sex: STRAIN-BD, Route: SUBCUTANEOUS, Dose: >6 MG/KG ONCE, Tumor Site: Type of Lesion: COLON: ADENOCARCINOMA, KIDNEY: NEPHROBLASTOMA): active; positive
- carcinogen call (Species: RAT, Strain/Sex: STRAIN-BD, Route: SUBCUTANEOUS, Dose: >6 MG/KG ONCE, Tumor Site: Type of Lesion: COLON: ADENOCARCINOMA, NERVOUS SYSTEM: NEUROBLASTOMA, KIDNEY: NEPHROBLASTOMA, Tumor Site: Type of Lesion: COLON: ADENOCARCINOMA, NERVOUS SYSTEM: NEUROBLASTOMA, KIDNEY: NEPHROBLASTOMA): active; positive
- carcinogen call (Species: RAT, Strain/Sex: WISTAR/MALE, Route: SUBCUTANEOUS, Dose: 0, 7.4 MG/KG IN 0.9% SALINE 1/WK FOR 10 WK ADMINISTERED TO RATS MAINTAINED ON NORMAL-PROTEIN (25% CASEIN), LOW-PROTEIN (, Tumor Site: Type of Lesion: COLON: TUMOR): active; positive

Compound: O=C1OC2(c3ccccc31)c1ccc(O)c(I)c1Oc1c2ccc(O)c1I
- carcinogen call (Species: MOUSE, Strain/Sex: ICR/FEMALE, Route: DERMAL, Dose: 0, 1 MG IN 0.1 ML DISTILLED WATER 2/WK FOR A MEAN TOTAL DOSE OF 132.6 MG (STUDY DURATION: 18 MO)): inactive; negative
- carcinogen call (Species: MOUSE, Strain/Sex: ICR/MALE, Route: DERMAL, Dose: 0, 1 MG IN 0.1 ML DISTILLED WATER 2/WK FOR A MEAN TOTAL DOSE OF 132.6 MG (STUDY DURATION: 18 MO)): inactive; negative

Compound: C=CN(C)N=O
- carcinogen call (Species: RAT, Route: INHALATION, Tumor Site: Type of Lesion: NASAL CAVITY): active; positive
- carcinogen call (Species: RAT, Route: ORAL, Tumor Site: Type of Lesion: ESOPHAGUS): active; positive
